Source: PubChem BioAssay AID2060605 (Molecular Pharmacology Branch, DTP, NCI, 2025)
Values joined by “and” are separate entries in the source; they are usually repeats but may differ in a detail not shown here. Identical values can stand only once.

Test system: 947758-054-R-J2-PDC spheroid growth, percent test/control
Experiment: Anticancer human tumor 947758-054-R-J2-PDC patient-derived colon adenocarcinoma cell line growth inhibition [CLK]
Conditions: spheroids with HUVEC and MSC; for viability, T/C: stronger effect = lower value
Summary of the method: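 Patient-derived tumor cells grown as complex spheroids with HUVEC endothelial cells and mesenchymal stem cells, treated with drug combinations. Concentrations descend in half-log steps from near clinical Cmax, or from 10 microM if Cmax unknown.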

[1] = curve of first compound, second compound 0.0316 µM
[2] = curve of first compound, second compound 0.1 µM
[3] = curve of first compound, second compound 0.316 µM
[4] = curve of first compound, second compound 1 µM
[5] = curve of first compound, second compound 3.16 µM
[6] = curve of first compound, second compound 10 µM
[7] = second compound 0.0316 µM, first compound 0.0316 µM
[8] = second compound 0.0316 µM, first compound 0.1 µM
[9] = second compound 0.0316 µM, first compound 0.316 µM
[10] = second compound 0.0316 µM, first compound 1 µM
[11] = second compound 0.0316 µM, first compound 3.16 µM
[12] = second compound 0.0316 µM, first compound 10 µM
[13] = second compound 0.1 µM, first compound 0.0316 µM
[14] = second compound 0.1 µM, first compound 0.1 µM
[15] = second compound 0.1 µM, first compound 0.316 µM
[16] = second compound 0.1 µM, first compound 1 µM
[17] = second compound 0.1 µM, first compound 3.16 µM
[18] = second compound 0.1 µM, first compound 10 µM
[19] = second compound 0.316 µM, first compound 0.0316 µM
[20] = second compound 0.316 µM, first compound 0.1 µM
[21] = second compound 0.316 µM, first compound 0.316 µM
[22] = second compound 0.316 µM, first compound 1 µM
[23] = second compound 0.316 µM, first compound 3.16 µM
[24] = second compound 0.316 µM, first compound 10 µM
[25] = second compound 1 µM, first compound 0.0316 µM
[26] = second compound 1 µM, first compound 0.1 µM
[27] = second compound 1 µM, first compound 0.316 µM
[28] = second compound 1 µM, first compound 1 µM
[29] = second compound 1 µM, first compound 3.16 µM
[30] = second compound 1 µM, first compound 10 µM
[31] = second compound 3.16 µM, first compound 0.0316 µM
[32] = second compound 3.16 µM, first compound 0.1 µM
[33] = second compound 3.16 µM, first compound 0.316 µM
[34] = second compound 3.16 µM, first compound 1 µM
[35] = second compound 3.16 µM, first compound 3.16 µM
[36] = second compound 3.16 µM, first compound 10 µM
[37] = second compound 10 µM, first compound 0.0316 µM
[38] = second compound 10 µM, first compound 0.1 µM
[39] = second compound 10 µM, first compound 0.316 µM
[40] = second compound 10 µM, first compound 1 µM
[41] = second compound 10 µM, first compound 3.16 µM
[42] = second compound 10 µM, first compound 10 µM
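Also: spheroids exposed to compounds for one week before readout.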
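For viability, T/C in this document: 100% = DMSO vehicle control wells.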

In the case of `NC(=O)C(=Cn1cnc(-c2cc(C(F)(F)F)cc(C(F)(F)F)c2)n1)c1cncnc1` + CNC(=O)c1ccc(Nc2nc(OC3CCCC3)c3c(-c4ccc5nc(C)oc5c4)c[nH]c3n2)c(OC)c1, the IC50 [1] is reported as < 9.49 nM, the IC50 [2] is reported as < 9.49 nM and the IC50 [3] is reported as 11.2 nM. For the same compound, the IC50 [4] was < 9.49 nM, the IC50 [5] was < 9.49 nM and the IC50 [6] was < 9.49 nM. It also gave a viability, T/C (second compound 0.0316 µM, first compound 0.00949 µM) of 46.7%, a viability, T/C (second compound 0.0316 µM, first compound 0.03 µM) of 37.3% and a viability, T/C (second compound 0.0316 µM, first compound 0.0949 µM) of 34.4%. The viability, T/C (second compound 0.0316 µM, first compound 0.3 µM) was 33.6%, the viability, T/C (second compound 0.0316 µM, first compound 0.949 µM) was 8.62% and the viability, T/C (second compound 0.0316 µM, first compound 3 µM) was 2.27%. For the same compound, the viability, T/C (second compound 0.1 µM, first compound 0.00949 µM) was 45.2%, the viability, T/C (second compound 0.1 µM, first compound 0.03 µM) was 32.4% and the viability, T/C (second compound 0.1 µM, first compound 0.0949 µM) was 25.6%. For the same compound, the viability, T/C (second compound 0.1 µM, first compound 0.3 µM) was 22.8%, the viability, T/C (second compound 0.1 µM, first compound 0.949 µM) was 4.68% and the viability, T/C (second compound 0.1 µM, first compound 3 µM) was 0.78%. It also gave a viability, T/C (second compound 0.316 µM, first compound 0.00949 µM) of 53.1%, a viability, T/C (second compound 0.316 µM, first compound 0.03 µM) of 32.4% and a viability, T/C (second compound 0.316 µM, first compound 0.0949 µM) of 15.1%. It also gave a viability, T/C (second compound 0.316 µM, first compound 0.3 µM) of 11.8%, a viability, T/C (second compound 0.316 µM, first compound 0.949 µM) of 3.26% and a viability, T/C (second compound 0.316 µM, first compound 3 µM) of 0.42%. It also gave a viability, T/C (second compound 1 µM, first compound 0.00949 µM) of 25.9%, a viability, T/C (second compound 1 µM, first compound 0.03 µM) of 20.6% and a viability, T/C (second compound 1 µM, first compound 0.0949 µM) of 12%. For the same compound, the viability, T/C (second compound 1 µM, first compound 0.3 µM) was 3.56%, the viability, T/C (second compound 1 µM, first compound 0.949 µM) was 1.32% and the viability, T/C (second compound 1 µM, first compound 3 µM) was 0.36%. The viability, T/C (second compound 3.16 µM, first compound 0.00949 µM) was 20.4%, the viability, T/C (second compound 3.16 µM, first compound 0.03 µM) was 16.3% and the viability, T/C (second compound 3.16 µM, first compound 0.0949 µM) was 10.9%. The viability, T/C (second compound 3.16 µM, first compound 0.3 µM) was 1.11%, the viability, T/C (second compound 3.16 µM, first compound 0.949 µM) was 0.26% and the viability, T/C (second compound 3.16 µM, first compound 3 µM) was 0.36%. For the same compound, the viability, T/C (second compound 10 µM, first compound 0.00949 µM) was 15.3%, the viability, T/C (second compound 10 µM, first compound 0.03 µM) was 13.7% and the viability, T/C (second compound 10 µM, first compound 0.0949 µM) was 5.14%. The viability, T/C (second compound 10 µM, first compound 0.3 µM) was 0.42%, the viability, T/C (second compound 10 µM, first compound 0.949 µM) was 0.28% and the viability, T/C (second compound 10 µM, first compound 3 µM) was 0.34%.

With `CC(CO)NC(=O)c1cc(-c2ccc(Cl)cc2)nn(-c2cnn(C)c2)c1=O` (stereo not drawn) the viability, T/C (compound 0.0316 µM) was 92.8% and 77.6%, the viability, T/C (compound 0.1 µM) was 84.2% and 87.1% and the viability, T/C (compound 0.316 µM) was 94.1% and 107%. For the same compound, the viability, T/C (compound 1 µM) was 97.6% and 75.3%, the viability, T/C (compound 3.16 µM) was 108% and 92.3% and the viability, T/C (compound 10 µM) was 112% and 114%. The IC50 (curve of compound) was > 10000 nM.

`O=c1[nH]cc(F)c(=O)[nH]1` + CNC(=O)c1ccc(Nc2nc(OC3CCCC3)c3c(-c4ccc5nc(C)oc5c4)c[nH]c3n2)c(OC)c1 showed an IC50 [1] of 969 nM, an IC50 [2] of 892 nM and an IC50 [3] of 557 nM. The IC50 [4] was < 31.6 nM, the IC50 [5] was < 31.6 nM and the IC50 [6] was < 31.6 nM. For the same compound, the viability, T/C [7] was 97.2%, the viability, T/C [8] was 85.4% and the viability, T/C [9] was 84.2%. The viability, T/C [10] was 47.2%, the viability, T/C [11] was 38.4% and the viability, T/C [12] was 28%. It also gave a viability, T/C [13] of 81.3%, a viability, T/C [14] of 79.1% and a viability, T/C [15] of 88%. For the same compound, the viability, T/C [16] was 46.3%, the viability, T/C [17] was 31% and the viability, T/C [18] was 22%. It also gave a viability, T/C [19] of 79.8%, a viability, T/C [20] of 79.4% and a viability, T/C [21] of 51.4%. It also gave a viability, T/C [22] of 44.3%, a viability, T/C [23] of 27.7% and a viability, T/C [24] of 16.7%. The viability, T/C [25] was 47.4%, the viability, T/C [26] was 40.3% and the viability, T/C [27] was 52.8%. It also gave a viability, T/C [28] of 31.2%, a viability, T/C [29] of 20.6% and a viability, T/C [30] of 13.2%. It also gave a viability, T/C [31] of 42.6%, a viability, T/C [32] of 25% and a viability, T/C [33] of 38.6%. It also gave a viability, T/C [34] of 26.1%, a viability, T/C [35] of 16.8% and a viability, T/C [36] of 11.8%. For the same compound, the viability, T/C [37] was 36.2%, the viability, T/C [38] was 24.6% and the viability, T/C [39] was 35.9%. The viability, T/C [40] was 22.1%, the viability, T/C [41] was 12.2% and the viability, T/C [42] was 13.2%.

With `O=C(c1cc(Cc2n[nH]c(=O)c3ccccc23)ccc1F)N1CCN(C(=O)C2CC2)CC1` + CNC(=O)c1ccc(Nc2nc(OC3CCCC3)c3c(-c4ccc5nc(C)oc5c4)c[nH]c3n2)c(OC)c1 the IC50 [1] was > 10000 nM, the IC50 [2] was > 10000 nM and the IC50 [3] was > 10000 nM. For the same compound, the IC50 [4] was > 10000 nM, the IC50 [5] was 156 nM and the IC50 [6] was < 31.6 nM. For the same compound, the viability, T/C [7] was 101%, the viability, T/C [8] was 97.3% and the viability, T/C [9] was 96.3%. For the same compound, the viability, T/C [10] was 93.5%, the viability, T/C [11] was 113% and the viability, T/C [12] was 80.9%. The viability, T/C [13] was 110%, the viability, T/C [14] was 102% and the viability, T/C [15] was 100%. For the same compound, the viability, T/C [16] was 99.4%, the viability, T/C [17] was 110% and the viability, T/C [18] was 73.7%. It also gave a viability, T/C [19] of 94.3%, a viability, T/C [20] of 94.8% and a viability, T/C [21] of 64.5%. The viability, T/C [22] was 71.5%, the viability, T/C [23] was 103% and the viability, T/C [24] was 65%. For the same compound, the viability, T/C [25] was 63.2%, the viability, T/C [26] was 53% and the viability, T/C [27] was 53.7%. For the same compound, the viability, T/C [28] was 64.1%, the viability, T/C [29] was 69.2% and the viability, T/C [30] was 35.8%. The viability, T/C [31] was 56.2%, the viability, T/C [32] was 43.6% and the viability, T/C [33] was 45.4%. For the same compound, the viability, T/C [34] was 52.7%, the viability, T/C [35] was 54% and the viability, T/C [36] was 37.4%. The viability, T/C [37] was 47.9%, the viability, T/C [38] was 40.9% and the viability, T/C [39] was 41.5%. The viability, T/C [40] was 34.4%, the viability, T/C [41] was 35.2% and the viability, T/C [42] was 35.1%.
